Measurements as given in PMC12005801, “Non‐Membrane Active Peptide Resensitizes MRSA to β‐Lactam Antibiotics and Inhibits S. aureus Virulence” (Advanced Science, 2025).
Where two headings read alike, the source gives them in different places.

Legend:
S. aureus 29213 = assay: MIC of β-lactams with/without GN1; type: cell-based, Staphylococcus aureus; details: for MIC: Staphylococcus aureus, antibiotic alone; for MIC (+1/2 MIC GN1): antibiotic + 1/2 MIC GN1
Description: MICs determination of drugs was based on the standard microdilution method as described previously.^[ [46] ^] Briefly, compounds were twofold serial dilution with MHB. Next, AMPs were added to the log‐phase bacteria suspensions (1 × 10^6 CFUs mL^−1) and then mixed with compounds in a 96‐well microliter plate (Corning, NY, USA).

MRSA T144 [1] = assay: MIC assay, agent alone; type: cell-based, Staphylococcus aureus; parameters: MIC^a, MIC in the presence of AMPs only: unit not given beside the values; details: for MIC: Staphylococcus aureus
MRSA T144 [2] = assay: MIC assay of β-lactams in the presence of AMPs (potentiation); type: cell-based, Staphylococcus aureus; details: for Potentiation (fold)^c, MIC^a / MIC^b: antibiotic with 1/4 MIC GN1
Description: A) Potentiation of different AMPs to piperacillin (PIP) against MRSA T144. 1/4 MIC AMPs were mixed with bacteria (10^6 CFU mL^−1) in MH medium and cultured with diluted PIP in 96‐well plates overnight. […] All experiments were conducted with three biological replicates and data were presented as mean ± SD.

MRSA T144 [3] = assay: Time-killing assay; type: cell-based, Staphylococcus aureus; details: identical concentrations alone: GN1 8 µg mL^−1, PIP 16 µg mL^−1, 12 h
Description: Briefly, overnight bacteria culture was diluted 1:1000 into LB and incubated for 4 h at 37 °C with 200 rpm. […] At the time points 0, 2, 4, 6, 8, 10, and 12 h, 100 µL bacteria culture was removed and resuspended in PBS and the serial dilutions were spotted on LB agar. After incubation overnight at 37 °C, the colony counts were calculated.

MRSA T144 [4] = details: addition of glutamate
Description: G) Fold changes in MIC values of various β‐lactams in the presence of glutamate against MRSA T144. […] All experiments were conducted with three biological replicates and data were presented as mean ± SD. Statistical significance was analyzed by ordinary one‐way or two‐way ANOVA (*P < 0.05, **P < 0.01, ***P < 0.001, ****P < 0.0001). ns, not significant.

[5] = MRSA T144, read-out: MIC^a, MIC in the presence of antibiotics only
[6] = MRSA, read-out: MIC^a, MIC in the presence of antibiotics only

Compound	MIC (S. aureus 29213)	MIC (+1/2 MIC GN1) (S. aureus 29213)	MIC (MRSA T144 [1]; [5])	MIC^b, MIC in combination of antibiotics and 1/4 MIC GN1 (MRSA T144 [2])	Potentiation (fold)^c, MIC^a / MIC^b (MRSA T144 [2])	MIC (MRSA T144 [1]; [6])	further results
CC1(C)S[C@@H]2[C@H](NC(=O)[C@H](N)c3ccccc3)C(=O)N2[C@H]1C(=O)O [Ampicillin]	16 µg/mL	8 µg/mL	512 µg/mL	8 µg/mL	64 fold		
CC1(C)S[C@@H]2[C@H](NC(=O)C(C(=O)O)c3ccccc3)C(=O)N2[C@H]1C(=O)O (stereo partly drawn) [Carbenicillin]				1 µg/mL	32 fold	32 µg/mL	
CO/N=C(\C(=O)N[C@@H]1C(=O)N2C(C(=O)[O-])=C(C[N+]3(C)CCCC3)CS[C@H]12)c1csc(N)n1 [Cefepime]	4 µg/mL	2 µg/mL		2 µg/mL	4 fold	8 µg/mL	
CO/N=C(\C(=O)N[C@@H]1C(=O)N2C(C(=O)O)=C(CSc3nc(=O)c(=O)[nH]n3C)CS[C@H]12)c1csc(N)n1 [Ceftriaxone]				4 µg/mL	8 fold	32 µg/mL	
CO/N=C(\C(=O)N[C@@H]1C(=O)N2C(C(=O)O)=C(COC(N)=O)CS[C@H]12)c1ccco1 [Cefuroxime]				1 µg/mL	8 fold	8 µg/mL	
C[C@@H](O)[C@H]1C(=O)N2C(C(=O)O)=C(S[C@@H]3CN[C@H](C(=O)N(C)C)C3)[C@H](C)[C@H]12 [Meropenem]	0.0625 µg/mL	0.03125 µg/mL		0.0625 µg/mL	16 fold	1 µg/mL	
Cc1onc(-c2ccccc2)c1C(=O)N[C@@H]1C(=O)N2[C@@H]1SC(C)(C)[C@@H]2C(=O)O [Oxacillin]			1 µg/mL	0.03125 µg/mL	32 fold		
CCN1CCN(C(=O)N[C@@H](C(=O)N[C@@H]2C(=O)N3[C@@H]2SC(C)(C)[C@@H]3C(=O)O)c2ccccc2)C(=O)C1=O [Piperacillin]	2 µg/mL	0.5 µg/mL	> 512 µg/mL	8 µg/mL			Time-kill kinetics, single agent (MRSA T144 [3]): failed to prevent bacterial proliferation; MIC (MRSA T144 [1]; MRSA T144, read-out: MIC of PIP alone): 512 µg/mL
CC1(C)S[C@@H]2[C@H](NC(=O)[C@H](C(=O)O)c3ccsc3)C(=O)N2[C@H]1C(=O)O [Ticarcillin]	2 µg/mL	2 µg/mL	16 µg/mL	1 µg/mL	16 fold		
N[C@@H](CCC(=O)O)C(=O)O [glutamate]							Reduction of MIC values of three β‐lactam antibiotics (MRSA T144 [4]): 2-16 fold
Ac-WKVKWKVKWKVK-NH2 [WK-12]							MIC^a, MIC in the presence of AMPs only (MRSA T144 [1]; MRSA T144, microdilution in MHB, 1 × 10^6 CFUs mL^−1, 37 °C, 16–18 h, no unit in table (text gives µg mL^−1)): 32; Potentiation (fold)^c, MIC^c / MIC^b (MRSA T144 [2]; MIC of piperacillin only / MIC of piperacillin with 1/4 MIC AMP): 4 fold; MIC^b, MIC of piperacillin in the presence of 1/4 MIC AMPs (MRSA T144 [2]; label = the AMP added at 1/4 MIC, no unit in table (text gives µg mL^−1)): 128
